For 63 compounds, XC50 results are on record in ChEMBL document CHEMBL1157539, “Thousands of chemical starting points for antimalarial lead identification” (Nature, 2010).

The structures appear in SMILES notation.

The experiment relates to Plasmodium falciparum. The experiment can be described thus: GSK_TCMDC: Inhibition of Plasmodium falciparum 3D7 in whole erythrocytes, using parasite LDH activity as an index of growth. In kind it is functional, organism-based. The conditions noted are these: Plasmodium falciparum, 3D7.
In turn, `COc1cccc2c(N/N=C/c3cccc([N+](=O)[O-])c3)ccnc12` displayed an XC50 of 748 nM.

As for `Cc1cc(N[C@@H](CC(C)C)C(=O)NCc2cccs2)nc(NCCc2cccs2)n1`, the XC50 stood at 1020 nM.

With `CC(C)(C)c1ccc(CN2CCC(CNC(=O)c3cc(-c4ccccc4C(F)(F)F)cs3)C2)cc1` (stereo not drawn), the XC50 is 1240 nM.

The compound `COc1cc2nc(NCCc3ccccc3)nc(NCc3cnn(C)c3C)c2cc1OC` came in with an XC50 of 711 nM.

For the compound `O=C(NCCNc1noc(-c2sccc2Br)n1)c1ccc(Cl)cc1`, the XC50 worked out at 1170 nM.

The compound `CCCCNCC(O)COc1ccccc1-c1ccc(N/N=C/c2cccc3ccccc23)nn1` (stereo not drawn) returned an XC50 of 891 nM.

In the case of `COC(C(=O)OCCC1CCCN1C)(c1ccccc1)C1CCCCC1` (stereo not drawn), the XC50 was determined as 711 nM.

With `CCCc1cnc2nc(N)nc(N)c2c1C`, the XC50 turned out to be 1120 nM.

`Cc1cc(N[C@@H](Cc2ccccc2)C(=O)NCCc2ccccc2)nc(NCCc2ccc(F)cc2)n1` yielded an XC50 of 661 nM.

Turning to `Cc1nc(-c2cccc(C(=O)Nc3cnc4ccccc4c3)c2)no1`, the XC50 worked out at 1160 nM.

`N#Cc1ccc(N(CC(=O)NCCc2ccc(F)cc2)CC2CC2)c2ccccc12` gave an XC50 of 932 nM.

With `COc1ccc2nccc(N3CCC(CCNCc4cc5c(cn4)OCCO5)CC3)c2c1`, the XC50 came out at 874 nM.

In turn, `O=C(NC1CCC(N2CCN(c3cccc(C(F)(F)F)c3)CC2)CC1)c1cc2ccccc2[nH]1` (stereo not drawn) had an XC50 of 723 nM.

The compound `CCC(C)c1ccc(NC(=O)c2ccc(S(=O)(=O)Nc3ccc(OC)c(N4CCN(CC5CC5)CC4)c3)cc2)cc1` (stereo not drawn) came in with an XC50 of 703 nM.

Turning to `COc1ccc(Nc2nccc(N3CCC(NC(=O)C(C)c4ccc(Cl)cc4)C3)n2)cc1` (stereo not drawn), the XC50 stood at 1010 nM.

`CC1CCCN1Cc1cccc(-c2ccc(C(=O)NCCOc3ccccc3)s2)c1` (stereo not drawn) returned an XC50 of 925 nM.

Take `C[C@@H](C(N)=O)N1CCCCC1c1ccc(OCc2cccc(F)c2)cc1` (stereo partly drawn): the XC50 is 989 nM.

For `O=C(Nc1ccccc1)NC1CCN(CCC2(c3ccc(Cl)c(Cl)c3)COCN(C(=O)c3ccccc3)C2)C1` (stereo not drawn), the XC50 was 880 nM.

Compound `O=C(Nc1ccc(-c2nc3ccccc3[nH]2)cc1)c1ccc([N+](=O)[O-])s1` yielded an XC50 of 252 nM.

As to `O=C(/C=C/c1ccc(Cl)cc1)NCCCCCN1CCC(C(=O)Nc2cccc(Cl)c2)CC1`, the XC50 is 853 nM.

Take `Cc1nc(-c2cccc3c(NC(=O)Nc4ccc5nccc(N6CCN(C)CC6)c5c4)cccc23)no1`: the XC50 is 235 nM.

Turning to `COc1ccc(CNc2ncc(-c3ccsc3)c(-c3nccs3)n2)cc1OC`, the XC50 was found to be 89 nM.

With `COc1ccc2nccc(N3CCC(CCNCc4ccc5c(n4)NC(=O)CO5)CC3)c2c1`, the XC50 worked out at 705 nM.

Compound `Cc1ccc(Nc2nccc(NCC(O)c3cccc(F)c3)n2)cc1` (stereo not drawn) returned an XC50 of 675 nM.

`Cc1cccc(NC(=O)NC2CCN(CCCCCNC(=O)/C=C/c3ccc(Cl)c(Cl)c3)CC2)c1` gave an XC50 of 753 nM.

In the case of `COc1ccccc1C1CCN(Cc2csc(NC(=O)c3ccc(-c4ccc(C(F)(F)F)cc4)cc3)n2)CC1`, the XC50 came to 954 nM.

The compound `CCc1sc(N2CCN(C)CC2)nc1C(=O)NCCc1ccc(Cl)c(Cl)c1` yielded an XC50 of 1180 nM.

Take `CC1(C)N=C(N)N=C(N)N1OCc1cc2ccccc2cc1CON1C(N)=NC(N)=NC1(C)C`: the XC50 was 126 nM.

Compound `NC(=O)c1ccc(C(=O)Nc2cccc(-c3csc(-c4nc5ccccc5[nH]4)c3)c2)cc1` yielded an XC50 of 351 nM.

`COc1ccc(CN2CCCN(Cc3cccc(NC(=O)c4ccc5ccccc5c4)c3)CC2)cc1` displayed an XC50 of 1000 nM.

The compound `O=C(O)C[C@H](NC(=O)c1cc(-c2ccc3c(c2)OCO3)no1)C(=O)O.O=C(O)C[C@H](NC(=O)c1conc1-c1ccc2c(c1)OCO2)C(=O)O` came in with an XC50 of 194 nM.

Consider `Nc1ncc(-c2ccc(NC(=O)Nc3cc(C(F)(F)F)ccc3F)cc2)c(N)n1`, for which the XC50 amounted to 719 nM.

For `O=C(Nc1ccnc2ccccc12)NC1CCN(CCc2ccccc2)CC1`, the XC50 was 364 nM.

The compound `CC(C)c1ccc(OCCCON2C(=N)N=C(N)NC2(C)C)cc1` displayed an XC50 of 3.2 nM.

`CC(C)CCNC(=O)c1cc(C(=O)c2cc(F)ccc2O)cn(CCC(C)C)c1=O` came in with an XC50 of 753 nM.

Compound `OC(CNc1ccnc(Nc2ccccc2)n1)c1cccc(C(F)(F)F)c1` (stereo not drawn) yielded an XC50 of 646 nM.

As to `Nc1nc(N)c2c(Cl)c(CNc3cccc(C(=O)O)c3)ccc2n1`, the XC50 came out at 8.88 nM.

Compound `COc1cccc(CNc2noc(-c3c(-c4ccccc4)noc3C)n2)c1OC` gave an XC50 of 875 nM.

Take `CS(=O)(=O)c1cccc(-c2cnc3[nH]cc(-c4ccc(CCC(=O)O)cc4)c3c2)c1`: the XC50 was 634 nM.

Take `CCOc1ccc2c(=NN=Cc3cccc(OC)c3)cc(C)[nH]c2c1`: the XC50 stood at 123 nM.

Regarding `CN1CCC(C(=O)Nc2cccc(-c3ccc(-c4nc5cc(C(F)(F)F)ccc5[nH]4)s3)c2)CC1`, the XC50 was determined as 724 nM.

`S=C(NCCN1CCOCC1)Nc1ccccc1` yielded an XC50 of 1020 nM.

In turn, `Cc1cccc2nc(-c3ccc(-c4cccc(CNCc5ccccc5)c4)cc3)[nH]c12` showed an XC50 of 246 nM.

`O=C(Nc1cccc(-c2ccc(-c3nc4cc(F)ccc4[nH]3)s2)c1)c1ccncc1`: the XC50 stood at 703 nM.

In turn, `CCc1cn2c3c(cc(C(=O)N[C@@H](Cc4cc(F)cc(F)c4)[C@H](O)CNC4CCCCC4)cc13)N(C)S(=O)(=O)CC2` had an XC50 of 34.5 nM.

With `Cc1cc(-c2ccc(NC(=O)Nc3ccc4nccc(N5CCN(C)CC5)c4c3)cc2C)cc(C)n1`, the XC50 was 153 nM.

For the compound `CN1CCN(c2ccnc3ccc(NC(=O)Cc4ccc(-c5ccncc5)c5ccccc45)cc23)CC1`, the XC50 was 203 nM.

Turning to `O=C(CNCC1CCCCC1)Nc1cc(C(F)(F)F)ccc1Cl`, the XC50 was 982 nM.

As to `COc1ccc2nccc([C@@H](O)CN3CCC(NC(=O)C(c4cc5ccccc5o4)N4CCN(Cc5ccccc5)CC4)CC3)c2c1` (stereo partly drawn), the XC50 amounted to 163 nM.

On to `CC(CN(C)C)C(=O)Nc1ccc(-c2ccc(-c3nc4ccccc4[nH]3)cc2)cc1` (stereo not drawn), for which the XC50 worked out at 741 nM.

`COc1cc(Cc2cnc(N)nc2N)cc(OC)c1OCCCCCN1C(=O)c2ccccc2C1=O` came in with an XC50 of 618 nM.

Consider `CCCCCNc1ccnc2cc(Cl)ccc12`, for which the XC50 worked out at 509 nM.

For the compound `CC(C)c1ccc(NC(=O)c2ccc(CN3CCCN(CC4CCCCC4)CC3)cc2)cc1`, the XC50 is 615 nM.

Regarding `Fc1ccc(COc2ccc(Nc3ncnc4ccc(I)cc34)cc2Cl)cc1`, the XC50 was 1180 nM.

With `COc1ccc(N2CCN(CCCCNC(=O)c3ccc(NC(=O)c4cccc(Cl)c4)cc3)CC2)c(OC)c1`, the XC50 was 911 nM.

In the case of `COc1ccc(Nc2ncc3c(-c4cccc(NC(=O)Cc5cccc(O)c5)c4)c[nH]c3n2)cc1OC`, the XC50 is 698 nM.

As to `CC(Cc1ccc(OCCCCOc2ccccc2)cc1)NCCCN1CCOCC1` (stereo not drawn), the XC50 came to 725 nM.

`CC(=O)Nc1ccc(NC(=O)c2cc(-c3ccc(C)cc3O)n[nH]2)cc1` had an XC50 of 490 nM.

The compound `O=c1cc(N2CCCNCC2)c(Cl)nn1Cc1ccc(NS(=O)(=O)c2ccc(Oc3ccccc3)cc2)cc1` returned an XC50 of 800 nM.

`Cn1cncc1CNCc1ccc(-c2cccc(-c3nc4ccccc4[nH]3)c2)cc1` displayed an XC50 of 234 nM.

As to `CN1CCCN(Cc2ccc(-c3ccc(NC(=O)c4cccc(Cl)c4)cc3)cc2)CC1`, the XC50 came to 859 nM.

Regarding `CCC(C)NC(=O)CN1CN(c2ccccc2)C2(CCN(C(=O)c3ccc(C(C)(C)C)cc3)CC2)C1=O` (stereo not drawn), the XC50 turned out to be 125 nM.

`Cc1noc(C)c1-c1cccc(CNCc2ccc(-c3cccc(-c4nc5cccc(C)c5[nH]4)c3)cc2)c1` displayed an XC50 of 215 nM.
